Test results reported in patent US8192962B2, “Processes for detecting toxic substances” (Daikin Industries, Ltd., priority 2001, dated 2012).

Tested on: Energy system protein genes
Assay: DNA chip mRNA expression in yeast, energy system protein genes (Table 4)
Format: cell-based, Saccharomyces cerevisiae S288C
Description: Yeast (Saccharomyces cerevisiae S288C (α SUC2mal mel gap2 CUP1)) were incubated at 25° C. on YPD medium (yeast extract 1%, polypepton 2%, glucose 2%). One of toxic chemical substances was added to the cells at logarithmic growth phase, and the cells were further incubated for two hours. Cells were cultured without any chemical substance in the same condition, and were used as control. Concentrations of the chemical substances were defined to inhibit the growth of the yeast but not lead to death.
After completion of the incubation, the culture was centrifuged to collect the cells. To the cells, sodium acetate buffer (50 mM sodium acetate, 10 mM EDTA, 1% SDS) was added, and the mixture was shaken at 65° C. for five minutes, followed by returning to room temperature, and obtaining the supernatant, of which the procedures were repeated two times. To the supernatant, ½ amount of a solution of phenol/chloroform was added, and the mixture was centrifuged to give a supernatant, which was added with an equal amount of chloroform, and the mixture was centrifuged to give a supernatant. To the supernatant, an equal amount of isopropanol containing 0.3 M sodium acetate was added, and the mixture was allowed to stand at room temperature for 30 minutes, after which the mixture was centrifuged to give a sediment of the whole RNAs. Seventy % ethanol was added to the sediment, and the mixture was again centrifuged to give a sediment, which was then dried and dissolved in water. mRNA was isolated from the whole RNAs as followings. In view of the fact that a poly A chain is attached to the 3′ terminus of mRNA, a polynucleotide having a poly T structure which was immobilized on the surface of latex beads was used to trap the mRNA, and then the mRNA was washed and eluted with spine column (Oligotex-dT30<Super>mRNA Purification Kit, Takara). Reverse transcription of the mRNA was conducted with a reverse transcriptase (Super Script II Reverse Transcriptase; catalogue No. 18064-014, GibcoBRL) using fluorescence-labeled nucleotides to give cDNAs that were introduced with Cy3-dUTP or Cy5-dUTP during the reverse transcription.
The labeled cDNAs were dissolved in TE buffer (10mM Tris-HCl/1 mM EDTA, pH8.0), and the solution was dropped on the DNA chip containing the whole genes of yeast (DNA Chip Research Inc. Japan) so that the cDNAs were hybridized on the DNA chip at 65° C. for over 12 hours. The fluoresces intensity of the DNA chip was read with a scanner, and the ratio relative to the fluorescence intensity resulting from the absence of chemical substance was estimated as the following, which is shown in Tables 1 to 9: […]

`[Cl][Cd][Cl]` [(2), CdCl2] was tested, and the “The level of expressed mRNA in the presence of chemical substance/The level of expressed mRNA in the absence of chemical substance” value (yeast gene YJR048W) was 0.9, the “The level of expressed mRNA in the presence of chemical substance/The level of expressed mRNA in the absence of chemical substance” value (yeast gene YJR121W, cells incubated two hours with the chemical substance) was 1.1 and the “The level of expressed mRNA in the presence of chemical substance/The level of expressed mRNA in the absence of chemical substance” value (yeast gene YJR155W) was 3.7. For the same molecule, the “The level of expressed mRNA in the presence of chemical substance/The level of expressed mRNA in the absence of chemical substance” value (yeast gene YKL016C, cells incubated two hours with the chemical substance) was 1.3, the “The level of expressed mRNA in the presence of chemical substance/The level of expressed mRNA in the absence of chemical substance” value (yeast gene YKL060C, cells incubated two hours with the chemical substance) was 0.8 and the “The level of expressed mRNA in the presence of chemical substance/The level of expressed mRNA in the absence of chemical substance” value (yeast gene YKL141W, cells incubated two hours with the chemical substance) was 1.1. For the same molecule, the “The level of expressed mRNA in the presence of chemical substance/The level of expressed mRNA in the absence of chemical substance” value (yeast gene YKL148C, cells incubated two hours with the chemical substance) was 0.8, the “The level of expressed mRNA in the presence of chemical substance/The level of expressed mRNA in the absence of chemical substance” value (yeast gene YKR009C, cells incubated two hours with the chemical substance) was 1.2 and the “The level of expressed mRNA in the presence of chemical substance/The level of expressed mRNA in the absence of chemical substance” value (yeast gene YKR058W, cells incubated two hours with the chemical substance, 25° C., YPD medium) was 0.9. For the same molecule, the “The level of expressed mRNA in the presence of chemical substance/The level of expressed mRNA in the absence of chemical substance” value (yeast gene YKR097W) was 2.4, the “The level of expressed mRNA in the presence of chemical substance/The level of expressed mRNA in the absence of chemical substance” value (yeast gene YLL041C, cells incubated two hours with the chemical substance) was 0.5 and the “The level of expressed mRNA in the presence of chemical substance/The level of expressed mRNA in the absence of chemical substance” value (yeast gene YLR038C, cells incubated two hours with the chemical substance) was 1.1. For the same molecule, the “The level of expressed mRNA in the presence of chemical substance/The level of expressed mRNA in the absence of chemical substance” value (yeast gene YLR044C, cells incubated two hours with the chemical substance) was 0.6, the “The level of expressed mRNA in the presence of chemical substance/The level of expressed mRNA in the absence of chemical substance” value (yeast gene YLR134W, cells incubated two hours with the chemical substance) was 0.6 and the “The level of expressed mRNA in the presence of chemical substance/The level of expressed mRNA in the absence of chemical substance” value (yeast gene YLR258W, cells incubated two hours with the chemical substance) was 1.0. The “The level of expressed mRNA in the presence of chemical substance/The level of expressed mRNA in the absence of chemical substance” value (yeast gene YLR284C, cells incubated two hours with the chemical substance) was 1.0, the “The level of expressed mRNA in the presence of chemical substance/The level of expressed mRNA in the absence of chemical substance” value (yeast gene YLR295C, cells incubated two hours with the chemical substance, 25° C., YPD medium) was 1.1 and the “The level of expressed mRNA in the presence of chemical substance/The level of expressed mRNA in the absence of chemical substance” value (yeast gene YLR304C, cells incubated two hours with the chemical substance) was 0.6. The “The level of expressed mRNA in the presence of chemical substance/The level of expressed mRNA in the absence of chemical substance” value (yeast gene YLR345W) was 1.4, the “The level of expressed mRNA in the presence of chemical substance/The level of expressed mRNA in the absence of chemical substance” value (yeast gene YLR354C, cells incubated two hours with the chemical substance) was 2.5 and the “The level of expressed mRNA in the presence of chemical substance/The level of expressed mRNA in the absence of chemical substance” value (yeast gene YLR377C, cells incubated two hours with the chemical substance) was 2.6. The “The level of expressed mRNA in the presence of chemical substance/The level of expressed mRNA in the absence of chemical substance” value (yeast gene YLR395C, cells incubated two hours with the chemical substance) was 1.3, the “The level of expressed mRNA in the presence of chemical substance/The level of expressed mRNA in the absence of chemical substance” value (yeast gene YML087C) was 1.6 and the “The level of expressed mRNA in the presence of chemical substance/The level of expressed mRNA in the absence of chemical substance” value (yeast gene YML120C, cells incubated two hours with the chemical substance) was 1.2. The “The level of expressed mRNA in the presence of chemical substance/The level of expressed mRNA in the absence of chemical substance” value (yeast gene YML129C, cells incubated two hours with the chemical substance) was 0.9, the “The level of expressed mRNA in the presence of chemical substance/The level of expressed mRNA in the absence of chemical substance” value (yeast gene YMR073C, cells incubated two hours with the chemical substance) was 1.1 and the “The level of expressed mRNA in the presence of chemical substance/The level of expressed mRNA in the absence of chemical substance” value (yeast gene YMR118C) was 2.9. The “The level of expressed mRNA in the presence of chemical substance/The level of expressed mRNA in the absence of chemical substance” value (yeast gene YMR205C, cells incubated two hours with the chemical substance) was 0.7, the “The level of expressed mRNA in the presence of chemical substance/The level of expressed mRNA in the absence of chemical substance” value (yeast gene YMR261C, cells incubated two hours with the chemical substance) was 1.6 and the “The level of expressed mRNA in the presence of chemical substance/The level of expressed mRNA in the absence of chemical substance” value (yeast gene YMR267W, cells incubated two hours with the chemical substance, 25° C., YPD medium) was 1.8. For the same molecule, the “The level of expressed mRNA in the presence of chemical substance/The level of expressed mRNA in the absence of chemical substance” value (yeast gene YMR323W, cells incubated two hours with the chemical substance) was 1.1, the “The level of expressed mRNA in the presence of chemical substance/The level of expressed mRNA in the absence of chemical substance” value (yeast gene YNL071W) was 0.9 and the “The level of expressed mRNA in the presence of chemical substance/The level of expressed mRNA in the absence of chemical substance” value (yeast gene YNL202W, cells incubated two hours with the chemical substance) was 1.3. For the same molecule, the “The level of expressed mRNA in the presence of chemical substance/The level of expressed mRNA in the absence of chemical substance” value (yeast gene YNL241C) was 2.5, the “The level of expressed mRNA in the presence of chemical substance/The level of expressed mRNA in the absence of chemical substance” value (yeast gene YNL331C) was 3.6 and the “The level of expressed mRNA in the presence of chemical substance/The level of expressed mRNA in the absence of chemical substance” value (yeast gene YOL086C, cells incubated two hours with the chemical substance) was 0.5. The “The level of expressed mRNA in the presence of chemical substance/The level of expressed mRNA in the absence of chemical substance” value (yeast gene YOL165C) was 4.5, the “The level of expressed mRNA in the presence of chemical substance/The level of expressed mRNA in the absence of chemical substance” value (yeast gene YOR142W, cells incubated two hours with the chemical substance) was 1.2 and the “The level of expressed mRNA in the presence of chemical substance/The level of expressed mRNA in the absence of chemical substance” value (yeast gene YOR178C, cells incubated two hours with the chemical substance) was 1.3. The “The level of expressed mRNA in the presence of chemical substance/The level of expressed mRNA in the absence of chemical substance” value (yeast gene YOR388C, cells incubated two hours with the chemical substance) was 1.6, the “The level of expressed mRNA in the presence of chemical substance/The level of expressed mRNA in the absence of chemical substance” value (yeast gene YPL031C, cells incubated two hours with the chemical substance) was 2.0 and the “The level of expressed mRNA in the presence of chemical substance/The level of expressed mRNA in the absence of chemical substance” value (yeast gene YPL061W, cells incubated two hours with the chemical substance) was 1.4. For the same molecule, the “The level of expressed mRNA in the presence of chemical substance/The level of expressed mRNA in the absence of chemical substance” value (yeast gene YPL088W) was 1.3, the “The level of expressed mRNA in the presence of chemical substance/The level of expressed mRNA in the absence of chemical substance” value (yeast gene YPL171C) was 4.1 and the “The level of expressed mRNA in the presence of chemical substance/The level of expressed mRNA in the absence of chemical substance” value (yeast gene YPL240C) was 1.4. The “The level of expressed mRNA in the presence of chemical substance/The level of expressed mRNA in the absence of chemical substance” value (yeast gene YPL262W, cells incubated two hours with the chemical substance) was 1.7, the “The level of expressed mRNA in the presence of chemical substance/The level of expressed mRNA in the absence of chemical substance” value (yeast gene YPL275W, cells incubated two hours with the chemical substance) was 1.5 and the “The level of expressed mRNA in the presence of chemical substance/The level of expressed mRNA in the absence of chemical substance” value (yeast gene YPL276W, cells incubated two hours with the chemical substance) was 1.5. For the same molecule, the “The level of expressed mRNA in the presence of chemical substance/The level of expressed mRNA in the absence of chemical substance” value (yeast gene YPR048W, cells incubated two hours with the chemical substance) was 2.0 and the “The level of expressed mRNA in the presence of chemical substance/The level of expressed mRNA in the absence of chemical substance” value (yeast gene YPR184W, cells incubated two hours with the chemical substance) was 1.4.
